Experimental data published in patent US3992536A, “Pharmaceutical compositions containing a 1-phenyl-2,2,4,4-C1 -C2 alkyl-3-[4-phenyl of pyridyl)-piperazino]-cyclobutanol-(1) and method of use” (Boehringer Ingelheim GmbH, priority 1972, dated 1976).

How the values were obtained:
[1] = system: mice; assay: Muscle relaxing and sedative activity in mice (slowly rotating wire cylinders, Young and Lewis); format: in vivo, NMRI-mice, female; details: Mus musculus, po, read-out: ED50 (50% of the animals fall out of rotating cylinder)
Experimental: 2. Muscle relaxing and sedative activity in mice:
The muscle relaxing and sedative activity was tested according to the method of Young and Lewis (Science 105, 368 (1947)) with female NMRI-mice of a specific breed having a body weight of from 20 to 26 gm. The test apparatus comprises slowly turning wire cylinders, sloped for 30° against the vertical line (length: 43 cm; diameter: 22 cm; mesh-size of the wire netting: 0.6 cm). After peroral administration of a suspension of the substance under test in 1% tylose suspension to groups of 10 mice/dose, their bearing in the slowly rotating cylinders (2 rotations/minute) was observed and was compared with a control group. The dose (ED50) which caused 50% of the animals to fall out after certain test times was determined graphically: […]

[2] = Acute Toxicity (oral, Litchfield and Wilcoxon); format: in vivo; details: mouse, in vivo, po; mice; death within 14 days after application
Experimental: (§1) The acute toxicity was determined after oral administration to groups of 10 mice (sex ratio 1:1) from our own breeding colony.

[3] = system: mice; assay: Activity on the spontaneous motility in mice (inhibition, photoelectric barriers, Friebel, Sommer and Varadan); format: in vivo, SPF-NMRI-mice, female; details: Mus musculus, po, read-out: ED50 (50% inhibition of spontaneous motility)
Experimental: 1. Activity on the spontaneous motility in mice:
The inhibition of spontaneous motility was determined with the aid of photoelectric barriers using an adaption of the method of Friebel, Sommer and Varadan (Arzneimittelforschung 9, 126 (1959)). SPF-NMRI-mice from our own breeding colony, having a body weight between 20 and 26 gm, were used. The number of interruptions in the flow of light was measured by ten photoelectric cells uniformly distributed in the bottom of a cylindrical cage, 25 cm in diameter, using a counting device. Thus, the spontaneous motility was registered as the animals moved over the bottom of the cage. 5 female mice were placed in each cage and their activity after application of the substance was measured for different periods of time relative to control mice. The present decrease in motility observed after application of various dosages relative to sham treated control animals was determined by graphical extrapolation, so that the dosage necessary for a 50% inhibition of spontaneous motility (ED50) could be obtained: […]

[4] = system: mice; assay: Acute Toxicity (oral, Litchfield and Wilcoxon); format: in vivo; details: p.o., within 14 days, printed beside LD50 >3200 mgm/kg
Experimental: as §1

| SMILES | ED50 ([1]; after 30-60 minutes) [mg/kg] | ED50 ([1]; after 90-120 minutes) [mg/kg] | ED50 ([1]; after 210-240 minutes) [mg/kg] | ED50 ([1]; after 270-300 minutes) [mg/kg] | LD50 at 336 h [2] [mg/kg] | ED50 ([3]; after 30-45 minutes) [mg/kg] | ED50 ([3]; after 90-105 minutes) [mg/kg] | ED50 ([3]; after 150-165 minutes) [mg/kg] | animals died [4] |
| --- | --- | --- | --- | --- | --- | --- | --- | --- | --- |
| CC1(C)[C@H](N2CCN(c3ccccn3)CC2)C(C)(C)[C@@]1(O)c1ccc(O)cc1 [A] | 5.5 | 7.5 | 8.5 | 7.5 | 338 | 7.5 | 11 | 6 |  |
| CC1(C)[C@H](N2CCN(c3ccccc3)CC2)C(C)(C)[C@@]1(O)c1ccc(O)cc1 [B] | 26 | 11 | 6 | 5.5 | 1340 | > 50 | 3 | 4 |  |
| COc1ccc(N2CCN([C@H]3C(C)(C)[C@](O)(c4ccc(O)cc4)C3(C)C)CC2)cc1 [C] | 20 | 16 | 34 | 15.5 | > 6400 | 11 | 7.5 | 6 |  |
| COc1ccc([C@]2(O)C(C)(C)[C@@H](N3CCN(c4ccccc4)CC3)C2(C)C)cc1OC [D] | > 40 | 32 | 16 | 14 | 2900 | 26 | 22 | 3 |  |
| CC1(C)[C@H](N2CCN(c3ccc(O)cc3)CC2)C(C)(C)[C@@]1(O)c1ccc(O)cc1 [E] | 10 | 13 | 9 | 3 | > 3200 | 5 | 5 | < 2.5 | 0 out of 10 |
| CC(C)c1ccc([C@]2(O)C(C)(C)[C@@H](N3CCN(c4ccccc4)CC3)C2(C)C)cc1 [F] | 29 | 4 | 2 | 3 | > 800 | 95 | 5 | 2 |  |
| CC(C)c1ccc([C@]2(O)C(C)(C)[C@@H](N3CCN(c4ccccn4)CC3)C2(C)C)cc1 [G] | 11 | 8 | 3 | 8 | 118 | 7 | 3 | 5 |  |
| CC1(C)[C@H](N2CCN(c3ccccn3)CC2)C(C)(C)[C@@]1(O)c1ccc(Cl)cc1 [H] | 13 | 22 | 19 | 15 | 442 | > 13 | 31 | > 13 |  |
| CC(C)(C)c1ccc([C@]2(O)C(C)(C)[C@@H](N3CCN(c4ccccn4)CC3)C2(C)C)cc1 [I] | 16 | 10 | 17 | 14 |  | 16 | 3 | 3 |  |
| CC(C)(C)c1ccc([C@]2(O)C(C)(C)[C@@H](N3CCN(c4ccccc4)CC3)C2(C)C)cc1 [K] | 48 | 8 | 6 | 1 |  | 15 | 3 | 2 |  |
| CCC(C)c1ccc([C@]2(O)C(C)(C)[C@@H](N3CCN(c4ccccn4)CC3)C2(C)C)cc1 (stereo partly shown) [L] | 5 | 4 | 2 | 1 | 162 | 7 | 1 | 1 |  |
| CC(C)Cc1ccc([C@]2(O)C(C)(C)[C@@H](N3CCN(c4ccccn4)CC3)C2(C)C)cc1 [M] | 4 | 4 | 3 | 2 |  | 9 | > 3 | 0.4 |  |
| CC(C)Cc1ccc([C@]2(O)C(C)(C)[C@@H](N3CCN(c4ccccc4)CC3)C2(C)C)cc1 [N] | 65 | 3 | 2 | 3 |  | 8 | 2 | 1 |  |
| CCC(C)c1ccc([C@]2(O)C(C)(C)[C@@H](N3CCN(c4ccccc4)CC3)C2(C)C)cc1 (stereo partly shown) [O] | 1 | 1 | 2 | 1 | 800 | 9 | 3 | 2 |  |
| CCCCc1ccc([C@]2(O)C(C)(C)[C@@H](N3CCN(c4ccccn4)CC3)C2(C)C)cc1 [P] | 15 | 4 | 3 | 6 |  | 9 | 3 | 2 |  |
| CCCCc1ccc([C@]2(O)C(C)(C)[C@@H](N3CCN(c4ccccc4)CC3)C2(C)C)cc1 [Q] | > 200 | 22 | 8 | 8 |  | 34 | > 3 | 4 |  |
| CC1(C)[C@H](N2CCN(c3ccccn3)CC2)C(C)(C)[C@@]1(O)c1cccc(Cl)c1 [R] | 46 | 8 | 8 | 11 |  | > 25 | 12 | 13 |  |
